Assays:
Assay type in all cases: in vivo, human
[1] = system: adult subjects with schizophrenia; assay: PANSS general psychopathology subscale score, Clinical Study One; conditions: for Change from Baseline in PANSS General Psychopathology Subscale Score, Median / Change from Baseline in PANSS General Psychopathology Subscale Score, Mean (S.D.) / Trt Effect (versus placebo), PANSS General Psychopathology Subscale Score: ITT population; for Trt Effect (versus placebo), PANSS General Psychopathology Subscale Score: ANCOVA
Protocol: (§1) There were five treatment groups in this study. […] Study medication was administered once daily. After Baseline measurements were performed, the titration phase was begun. Bifeprunox treated subjects were titrated up to 5 mg, 10 mg or 20 mg according to a standardized titration schedule (Day 1: 0.125 mg, Day 2: 0.25 mg, Day 3: 0.5 mg, Day 4: 1.0 mg, Day 5: 2.0 mg, Day 6: 5.0 mg, Day 7: 10.0 mg, Day 8: 20 mg). When the assigned dose was reached, subjects were maintained at that dose for the remainder of the six-week treatment period.
The change in the Positive and Negative Symptom Scale (PANSS) total score, from baseline to endpoint, was the primary outcome measure. Secondary efficacy measures included: PANSS positive, PANSS negative, PANSS general psychopathology (GPP) score, PANSS-derived Brief Psychiatric Rating Scale (BPRS) score, Clinical Global Impressions-Severity of Illness (CGI-S), CGI-Improvement (CGI-I) scores, and responder rates. Safety and tolerability evaluations included extrapyramidal symptoms (EPS), weight gain, lipid profile, and serum prolactin.

[2] = system: adult subjects with schizophrenia; assay: CGI Severity of Illness score, Clinical Study Three; conditions: for CGI Severity of Illness Score, Trt Effect / Change from Baseline in CGI Severity of Illness Score, Mean (SD) / Change from Baseline in CGI Severity of Illness Score, Median / mean change (SD) from Baseline to Endpoint in CGI severity of illness score: LOCF; for CGI severity of illness score, treatment effect (bifeprunox—placebo): Endpoint LOCF; for mean change (SD) from Baseline to Endpoint in CGI severity of illness score: ITT
Source text: SECONDARY OBJECTIVES To assess the efficacy of bifeprunox in treating schizophrenia using the Positive Symptom sub-scale score of the PANSS, the Negative Symptom sub-scale score of the PANSS, the General Psychopathology sub-scale of the PANSS, Brief Psychiatric Rating Scale (BPRS) total score derived from the PANSS, BPRS psychosis score derived from the PANSS, the Clinical Global Impression Severity of Illness score (CGI-S), the Clinical Global Impression Improvement score (CGI-I), CGI-I responder rate, PANSS responder rate based on the PANSS total score, Calgary Depression Scale for Schizophrenia (CDSS), and Subject Satisfaction rating.
There were four treatment arms in this study, approximately 144 subjects per arm. […] After completing the Single-Blind Placebo Lead-in Period of at least three days, bifeprunox-treated subjects were titrated from 0.25 mg up to 20 mg/day or 30 mg/day according to a standardized titration scheme over a seven- or eight-day period, respectively. When the assigned dose was reached, subjects were maintained at that dose for the remainder of the six week treatment period. […] Subjects were hospitalized (if not already inpatients) after eligibility for study entry was verified, starting from the Screening Visit until at least 10 days after Baseline. Subjects could be hospitalized longer than 10 days if considered medically necessary by the Investigator. Rating scale assessments for efficacy and abnormal movement disorders were done weekly except for Week 5. […] Subject satisfaction with study medication was assessed at Week 6.

[3] = system: adult subjects with schizophrenia; assay: BPRS psychosis cluster score, Clinical Study One; conditions: for Change from Baseline in BPRS Psychosis Cluster Score, Mean (S.D.) / Change from Baseline in BPRS Psychosis Cluster Score, Median / Change from Baseline in BPRS Psychosis Cluster Score, Trt Effect (bifeprunox—placebo) / Change from Baseline in BPRS Psychosis Cluster Score, Mean S.D.: ITT population
Protocol: as §1

[4] = Bifeprunox 10 mg, Endpoint LOCF
[5] = Bifeprunox 20 mg, Endpoint LOCF

Structure (SMILES): O=c1[nH]c2cccc(N3CCN(Cc4cccc(-c5ccccc5)c4)CC3)c2o1 [Bifeprunox, 7-[4-([1,1′-biphenyl]-3-ylmethyl)-1-piperazinyl]-2(3H)-benzoxazolone]
- Change from Baseline in PANSS General Psychopathology Subscale Score, Median ([1]; Bifeprunox 5 mg, Week 3, LOCF): −3
- Change from Baseline in PANSS General Psychopathology Subscale Score, Mean (S.D.) ([1]; Bifeprunox 5 mg, Week 4, LOCF): −3.7 (9.1)
- Change from Baseline in PANSS General Psychopathology Subscale Score, Median ([1]; Bifeprunox 5 mg, Week 4, LOCF): −4
- Change from Baseline in PANSS General Psychopathology Subscale Score, Mean (S.D.) [1, 4]: −2.0 (9.2)
- Change from Baseline in PANSS General Psychopathology Subscale Score, Median [1, 4]: −1
- Trt Effect (versus placebo), PANSS General Psychopathology Subscale Score [1, 4]: 0.4
- Change from Baseline in PANSS General Psychopathology Subscale Score, Mean (S.D.) ([1]; Bifeprunox 10 mg, Week 1, LOCF): −0.9 (6.2)
- Change from Baseline in PANSS General Psychopathology Subscale Score, Median ([1]; Bifeprunox 10 mg, Week 1, LOCF): 0
- Change from Baseline in PANSS General Psychopathology Subscale Score, Mean (S.D.) ([1]; Bifeprunox 10 mg, Week 2, LOCF): −1.5 (7.7)
- Change from Baseline in PANSS General Psychopathology Subscale Score, Median ([1]; Bifeprunox 10 mg, Week 2, LOCF): −2
- Change from Baseline in PANSS General Psychopathology Subscale Score, Mean (S.D.) ([1]; Bifeprunox 10 mg, Week 3, LOCF): −1.7 (9.0)
- Change from Baseline in PANSS General Psychopathology Subscale Score, Median ([1]; Bifeprunox 10 mg, Week 3, LOCF): −1
- Change from Baseline in PANSS General Psychopathology Subscale Score, Mean (S.D.) ([1]; Bifeprunox 10 mg, Week 4, LOCF): −1.4 (8.8)
- Change from Baseline in PANSS General Psychopathology Subscale Score, Median ([1]; Bifeprunox 10 mg, Week 4, LOCF): −1
- Change from Baseline in PANSS General Psychopathology Subscale Score, Mean (S.D.) [1, 5]: −5.1 (8.8)
- Change from Baseline in PANSS General Psychopathology Subscale Score, Median [1, 5]: −5
- Trt Effect (versus placebo), PANSS General Psychopathology Subscale Score [1, 5]: −2.8
- Change from Baseline in PANSS General Psychopathology Subscale Score, Mean (S.D.) ([1]; Bifeprunox 20 mg, Week 1, LOCF): −3.0 (6.4)
- Change from Baseline in PANSS General Psychopathology Subscale Score, Median ([1]; Bifeprunox 20 mg, Week 1, LOCF): −2
- Change from Baseline in PANSS General Psychopathology Subscale Score, Mean (S.D.) ([1]; Bifeprunox 20 mg, Week 2, LOCF): −4.4 (7.5)
- Change from Baseline in PANSS General Psychopathology Subscale Score, Median ([1]; Bifeprunox 20 mg, Week 2, LOCF): −5
- Change from Baseline in PANSS General Psychopathology Subscale Score, Mean (S.D.) ([1]; Bifeprunox 20 mg, Week 3, LOCF): −5.2 (7.9)
- Change from Baseline in PANSS General Psychopathology Subscale Score, Median ([1]; Bifeprunox 20 mg, Week 3, LOCF): −6
- Change from Baseline in PANSS General Psychopathology Subscale Score, Mean (S.D.) ([1]; Bifeprunox 20 mg, Week 4, LOCF): −5.2 (8.4)
- Change from Baseline in PANSS General Psychopathology Subscale Score, Median ([1]; Bifeprunox 20 mg, Week 4, LOCF): −6
- PANSS general psychopathology score, estimate of the treatment effect ([1]; bifeprunox 5 mg, LOCF): −2.2
- PANSS general psychopathology score, estimate of the treatment effect ([1]; bifeprunox 10 mg, LOCF): 0.4
- PANSS general psychopathology score, estimate of the treatment effect ([1]; bifeprunox 20 mg, LOCF): −2.8
- CGI Severity of Illness Score, Trt Effect ([2]; 20 mg versus placebo, Week 6/Endpoint): −0.13
- Change from Baseline in CGI Severity of Illness Score, Mean (SD) ([2]; 20 mg, Week 1): −0.23 (0.63)
- Change from Baseline in CGI Severity of Illness Score, Median ([2]; 20 mg, Week 1): 0.0
- Change from Baseline in CGI Severity of Illness Score, Mean (SD) ([2]; 20 mg, Week 2): −0.48 (0.81)
- Change from Baseline in CGI Severity of Illness Score, Median ([2]; 20 mg, Week 2): 0.0
- Change from Baseline in CGI Severity of Illness Score, Mean (SD) ([2]; 20 mg, Week 3): −0.59 (0.89)
- Change from Baseline in CGI Severity of Illness Score, Median ([2]; 20 mg, Week 3): −1.0
- Change from Baseline in CGI Severity of Illness Score, Mean (SD) ([2]; 20 mg, Week 4): −0.65 (0.95)
- Change from Baseline in CGI Severity of Illness Score, Median ([2]; 20 mg, Week 4): −1.0
- Change from Baseline in CGI Severity of Illness Score, Mean (SD) ([2]; 20 mg, Week 6/Endpoint): −0.63 (0.98)
- Change from Baseline in CGI Severity of Illness Score, Median ([2]; 20 mg, Week 6/Endpoint): −1.0
- CGI Severity of Illness Score, Trt Effect ([2]; 30 mg versus placebo, Week 6/Endpoint): −0.09
- Change from Baseline in CGI Severity of Illness Score, Mean (SD) ([2]; 30 mg, Week 1): −0.26 (0.60)
- Change from Baseline in CGI Severity of Illness Score, Median ([2]; 30 mg, Week 1): 0.0
- Change from Baseline in CGI Severity of Illness Score, Mean (SD) ([2]; 30 mg, Week 2): −0.41 (0.76)
- Change from Baseline in CGI Severity of Illness Score, Median ([2]; 30 mg, Week 2): 0.0
- Change from Baseline in CGI Severity of Illness Score, Mean (SD) ([2]; 30 mg, Week 3): −0.50 (0.90)
- Change from Baseline in CGI Severity of Illness Score, Median ([2]; 30 mg, Week 3): 0.0
- Change from Baseline in CGI Severity of Illness Score, Mean (SD) ([2]; 30 mg, Week 4): −0.57 (0.89)
- Change from Baseline in CGI Severity of Illness Score, Median ([2]; 30 mg, Week 4): −1.0
- Change from Baseline in CGI Severity of Illness Score, Mean (SD) ([2]; 30 mg, Week 6/Endpoint): −0.62 (1.03)
- Change from Baseline in CGI Severity of Illness Score, Median ([2]; 30 mg, Week 6/Endpoint): −1.0
- CGI severity of illness score, treatment effect (bifeprunox—placebo) ([2]; bifeprunox 20 mg): −0.13
- mean change (SD) from Baseline to Endpoint in CGI severity of illness score ([2]; bifeprunox 20 mg): −0.63 (0.98)
- CGI severity of illness score, treatment effect (bifeprunox—placebo) ([2]; bifeprunox 30 mg): −0.09
- mean change (SD) from Baseline to Endpoint in CGI severity of illness score ([2]; bifeprunox 30 mg): −0.62 (1.03)
- BPRS psychosis cluster score, treatment effect (bifeprunox—placebo) ([3]; Bifeprunox 5 mg, Endpoint LOCF): −0.9
- Change from Baseline in BPRS Psychosis Cluster Score, Mean (S.D.) ([3]; Bifeprunox 5 mg, Endpoint LOCF): 2.5 (3.8)
- Change from Baseline in BPRS Psychosis Cluster Score, Median ([3]; Bifeprunox 5 mg, Endpoint LOCF): −3
- Change from Baseline in BPRS Psychosis Cluster Score, Trt Effect (bifeprunox—placebo) ([3]; Bifeprunox 5 mg, Endpoint LOCF): −0.9
- Change from Baseline in BPRS Psychosis Cluster Score, Mean (S.D.) ([3]; Bifeprunox 5 mg, Week 1, LOCF): −1.0 (2.6)
- Change from Baseline in BPRS Psychosis Cluster Score, Median ([3]; Bifeprunox 5 mg, Week 1, LOCF): −1
- Change from Baseline in BPRS Psychosis Cluster Score, Mean S.D. ([3]; Bifeprunox 5 mg, Week 2, LOCF): −1.8 (3.3)
- Change from Baseline in BPRS Psychosis Cluster Score, Median ([3]; Bifeprunox 5 mg, Week 2, LOCF): −2
- Change from Baseline in BPRS Psychosis Cluster Score, Mean (S.D.) ([3]; Bifeprunox 5 mg, Week 3, LOCF): −2.2 (3.6)
- Change from Baseline in BPRS Psychosis Cluster Score, Median ([3]; Bifeprunox 5 mg, Week 3, LOCF): −2
- Change from Baseline in BPRS Psychosis Cluster Score, Mean (S.D.) ([3]; Bifeprunox 5 mg, Week 4, LOCF): −24 (3.8)
- Change from Baseline in BPRS Psychosis Cluster Score, Median ([3]; Bifeprunox 5 mg, Week 4, LOCF): −3
- BPRS psychosis cluster score, treatment effect (bifeprunox—placebo) [3, 4]: 0.4
- Change from Baseline in BPRS Psychosis Cluster Score, Mean (S.D.) [3, 4]: −1.2 (4.6)
- Change from Baseline in BPRS Psychosis Cluster Score, Median [3, 4]: 0
- Change from Baseline in BPRS Psychosis Cluster Score, Trt Effect (bifeprunox—placebo) [3, 4]: 0.4
- Change from Baseline in BPRS Psychosis Cluster Score, Mean (S.D.) ([3]; Bifeprunox 10 mg, Week 1, LOCF): −0.7 (3.0)
- Change from Baseline in BPRS Psychosis Cluster Score, Median ([3]; Bifeprunox 10 mg, Week 1, LOCF): −1
- Change from Baseline in BPRS Psychosis Cluster Score, Mean S.D. ([3]; Bifeprunox 10 mg, Week 2, LOCF): −1.1 (3.7)
- Change from Baseline in BPRS Psychosis Cluster Score, Median ([3]; Bifeprunox 10 mg, Week 2, LOCF): −1
- Change from Baseline in BPRS Psychosis Cluster Score, Mean (S.D.) ([3]; Bifeprunox 10 mg, Week 3, LOCF): −1.1 (4.2)
- Change from Baseline in BPRS Psychosis Cluster Score, Median ([3]; Bifeprunox 10 mg, Week 3, LOCF): −1
- Change from Baseline in BPRS Psychosis Cluster Score, Mean (S.D.) ([3]; Bifeprunox 10 mg, Week 4, LOCF): −1.1 (4.3)
- Change from Baseline in BPRS Psychosis Cluster Score, Median ([3]; Bifeprunox 10 mg, Week 4, LOCF): −1
- Change from Baseline in BPRS Psychosis Cluster Score, Mean (S.D.) [3, 5]: −2.7 (3.9)
- Change from Baseline in BPRS Psychosis Cluster Score, Median [3, 5]: −3
- Change from Baseline in BPRS Psychosis Cluster Score, Trt Effect (bifeprunox—placebo) [3, 5]: −1.1
- Change from Baseline in BPRS Psychosis Cluster Score, Mean (S.D.) ([3]; Bifeprunox 20 mg, Week 1, LOCF): −1.5 (2.6)
- Change from Baseline in BPRS Psychosis Cluster Score, Median ([3]; Bifeprunox 20 mg, Week 1, LOCF): −1
- Change from Baseline in BPRS Psychosis Cluster Score, Median ([3]; Bifeprunox 20 mg, Week 2, LOCF): −2
- Change from Baseline in BPRS Psychosis Cluster Score, Mean (S.D.) ([3]; Bifeprunox 20 mg, Week 3, LOCF): −2.7 (3.5)
- Change from Baseline in BPRS Psychosis Cluster Score, Median ([3]; Bifeprunox 20 mg, Week 3, LOCF): −3
- Change from Baseline in BPRS Psychosis Cluster Score, Mean (S.D.) ([3]; Bifeprunox 20 mg, Week 4, LOCF): −2.8 (3.7)
- Change from Baseline in BPRS Psychosis Cluster Score, Median ([3]; Bifeprunox 20 mg, Week 4, LOCF): −3
- BPRS psychosis cluster score, treatment effect (bifeprunox—placebo) ([3]; bifeprunox 20 mg, Endpoint LOCF): −1.1

From patent publication US20090068290A1, “BIFEPRUNOX DOSES FOR TREATING SCHIZOPHRENIA” (priority 2006, published 2009)
